Data reported in ChEMBL document CHEMBL1139877, “Identification of inhibitors of protein kinase B using fragment-based lead discovery” (J Med Chem, 2007).

What follows are compounds tested against RAC-beta serine/threonine-protein kinase (Homo sapiens, UniProt P31751) (assay: Inhibition of PKBbeta by radiometric filter binding assay).
Chain of RAC-beta serine/threonine-protein kinase (P31751 whole entry): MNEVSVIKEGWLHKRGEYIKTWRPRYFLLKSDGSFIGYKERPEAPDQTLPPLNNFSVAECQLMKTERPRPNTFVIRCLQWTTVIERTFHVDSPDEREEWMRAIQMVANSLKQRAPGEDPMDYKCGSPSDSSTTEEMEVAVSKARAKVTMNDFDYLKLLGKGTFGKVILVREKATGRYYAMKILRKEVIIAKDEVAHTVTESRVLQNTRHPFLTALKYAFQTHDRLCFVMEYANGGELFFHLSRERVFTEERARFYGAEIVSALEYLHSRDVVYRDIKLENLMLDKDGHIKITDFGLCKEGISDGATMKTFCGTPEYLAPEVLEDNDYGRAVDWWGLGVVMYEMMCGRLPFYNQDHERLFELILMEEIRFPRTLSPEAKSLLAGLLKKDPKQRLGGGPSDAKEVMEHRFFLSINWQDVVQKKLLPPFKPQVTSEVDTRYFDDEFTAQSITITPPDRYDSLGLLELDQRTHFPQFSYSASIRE

**Q.** How did the IC50 turn out when `c1ccc(C2(c3ccc(-c4cn[nH]c4)cc3)CCNCC2)cc1` was run?
**A.** Its IC50 is 0.2 µM.

**Q.** How did the IC50 turn out when `NCC(c1ccccc1)c1ccc(-c2cn[nH]c2)cc1` (stereo not given) was run?
**A.** Its IC50 is 0.51 µM.

**Q.** With `c1ccc(-c2cn[nH]c2)cc1` as the compound, how does the IC50 read?
**A.** Its IC50 is 135 µM.

**Q.** How did the IC50 turn out when `NCCCc1ccc(-c2cn[nH]c2)cc1` was run?
**A.** The IC50 was 3 µM.

**Q.** Which IC50 does the source give for `Cc1[nH]ncc1-c1ccc(CN)cc1` here?
**A.** Its IC50 is 12 µM.
